One assay deals with JAK1 (Homo sapiens, UniProt P23458). The assay can be described thus: Biochemical potency on JAK1, TR-FRET (LANCE Ultra kinase assay). Particulars: ATP corresponding to Km; cell-free; read-out: JAK1 inhibitory activity (pIC50) (converted). Put shortly:
(§1)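 ULight-JAK-1 (Tyr1023) peptide phosphorylation at Km ATP, 1.5 h r.t.; substrate solution held peptide 30/50/20/10 nM and ATP 20/0.7/0.2/12 μM, enzyme solution 0.15/0.083/0.025/0.144 ng/μL (JAK1/JAK2/JAK3/TYK2). EDTA stop, Eu-PT66 antibody TR-FRET read at 665 nm; 11-point 5-fold dilutions from 20 μM; IC50 by variable-slope fit.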
A general note: In TR-FRET formats the signal depends on donor and acceptor labels being close together.

The next assay concerns the target JAK2 (Homo sapiens, UniProt O60674). The assay can be described thus: Biochemical potency on JAK2, TR-FRET (LANCE Ultra kinase assay). The note with it: ATP corresponding to Km; cell-free; read-out: JAK2 inhibitory activity (pIC50) (converted). A digest of the protocol: as §1
The next assay has as its target T1, JAK3 (Homo sapiens, UniProt P52333).
T1 sequence (P52333 1-1124): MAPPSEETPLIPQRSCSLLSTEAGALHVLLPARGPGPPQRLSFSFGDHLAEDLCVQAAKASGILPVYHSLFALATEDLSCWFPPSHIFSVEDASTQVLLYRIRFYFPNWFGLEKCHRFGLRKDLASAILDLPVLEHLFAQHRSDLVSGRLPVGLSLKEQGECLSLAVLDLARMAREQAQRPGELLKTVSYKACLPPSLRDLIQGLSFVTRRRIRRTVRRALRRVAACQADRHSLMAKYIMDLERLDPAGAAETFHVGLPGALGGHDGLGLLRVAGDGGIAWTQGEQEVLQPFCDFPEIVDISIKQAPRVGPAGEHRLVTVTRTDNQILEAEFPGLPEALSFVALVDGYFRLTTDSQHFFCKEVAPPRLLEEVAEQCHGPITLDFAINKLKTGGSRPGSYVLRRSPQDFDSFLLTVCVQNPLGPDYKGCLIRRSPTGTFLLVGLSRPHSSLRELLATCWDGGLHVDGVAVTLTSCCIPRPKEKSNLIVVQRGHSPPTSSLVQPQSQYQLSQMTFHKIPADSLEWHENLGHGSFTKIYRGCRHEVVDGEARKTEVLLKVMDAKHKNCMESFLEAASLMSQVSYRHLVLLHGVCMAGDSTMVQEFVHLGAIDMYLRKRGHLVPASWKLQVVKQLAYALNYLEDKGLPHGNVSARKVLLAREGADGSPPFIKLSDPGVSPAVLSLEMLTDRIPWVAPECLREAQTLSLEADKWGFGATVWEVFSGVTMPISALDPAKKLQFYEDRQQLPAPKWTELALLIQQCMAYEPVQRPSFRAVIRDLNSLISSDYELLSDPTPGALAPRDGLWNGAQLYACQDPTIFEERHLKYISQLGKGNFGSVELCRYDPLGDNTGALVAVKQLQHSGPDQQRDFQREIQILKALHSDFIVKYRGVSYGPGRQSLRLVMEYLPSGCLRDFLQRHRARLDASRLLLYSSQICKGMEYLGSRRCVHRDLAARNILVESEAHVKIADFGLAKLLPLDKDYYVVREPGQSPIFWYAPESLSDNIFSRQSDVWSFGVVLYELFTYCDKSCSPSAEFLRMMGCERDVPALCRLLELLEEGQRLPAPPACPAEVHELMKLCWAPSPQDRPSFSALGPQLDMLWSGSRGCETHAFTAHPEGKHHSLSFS
Description: Biochemical potency on JAK3, TR-FRET (LANCE Ultra kinase assay). The note with it: ATP corresponding to Km; cell-free; read-out: JAK3 inhibitory activity (pIC50) (converted). A digest of the protocol: as §1

The next assay concerns the target TYK2 (Homo sapiens, UniProt P29597). Description: Biochemical potency on Tyk2, TR-FRET (LANCE Ultra kinase assay). The note with it: ATP corresponding to Km; cell-free; read-out: TYK2 inhibitory activity (pIC50) (converted). Put shortly:
as §1

The test system of assay [1] is pSTAT6 in BEAS-2B human cell line. The assay can be described thus: Inhibition of IL-13 induced pSTAT6 in BEAS. Type of assay: cell-based. The note with it: for pIC50: Homo sapiens, BEAS-2B, 0.5 h, IL-13 trigger, 30 min, parent compound; for Fold difference parent vs predicted acid metabolite: ratio=IC50 predicted acid metabolite/IC50 ester. Put shortly: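 BEAS-2B cells grown 48 h, pre-treated 30 min with compound, then stimulated 30 min with IL-13. Lysate pSTAT6 (Tyr641) measured by sandwich ELISA. Eleven 5-fold dilutions from 10 μM, in duplicate, fitted to IC50.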

Here are results for ten molecules from US20260337208A1, “HETEROCYCLIC DERIVATIVES AS JANUS KINASE INHIBITORS” (CHIESI FARMACEUTICI S.P.A., priority 2022, published 2026).

pIC50: −log10 of the molar value. A value given as a limit tells only on which side of the number the result lay.

JAK1, sequence (P23458 whole entry): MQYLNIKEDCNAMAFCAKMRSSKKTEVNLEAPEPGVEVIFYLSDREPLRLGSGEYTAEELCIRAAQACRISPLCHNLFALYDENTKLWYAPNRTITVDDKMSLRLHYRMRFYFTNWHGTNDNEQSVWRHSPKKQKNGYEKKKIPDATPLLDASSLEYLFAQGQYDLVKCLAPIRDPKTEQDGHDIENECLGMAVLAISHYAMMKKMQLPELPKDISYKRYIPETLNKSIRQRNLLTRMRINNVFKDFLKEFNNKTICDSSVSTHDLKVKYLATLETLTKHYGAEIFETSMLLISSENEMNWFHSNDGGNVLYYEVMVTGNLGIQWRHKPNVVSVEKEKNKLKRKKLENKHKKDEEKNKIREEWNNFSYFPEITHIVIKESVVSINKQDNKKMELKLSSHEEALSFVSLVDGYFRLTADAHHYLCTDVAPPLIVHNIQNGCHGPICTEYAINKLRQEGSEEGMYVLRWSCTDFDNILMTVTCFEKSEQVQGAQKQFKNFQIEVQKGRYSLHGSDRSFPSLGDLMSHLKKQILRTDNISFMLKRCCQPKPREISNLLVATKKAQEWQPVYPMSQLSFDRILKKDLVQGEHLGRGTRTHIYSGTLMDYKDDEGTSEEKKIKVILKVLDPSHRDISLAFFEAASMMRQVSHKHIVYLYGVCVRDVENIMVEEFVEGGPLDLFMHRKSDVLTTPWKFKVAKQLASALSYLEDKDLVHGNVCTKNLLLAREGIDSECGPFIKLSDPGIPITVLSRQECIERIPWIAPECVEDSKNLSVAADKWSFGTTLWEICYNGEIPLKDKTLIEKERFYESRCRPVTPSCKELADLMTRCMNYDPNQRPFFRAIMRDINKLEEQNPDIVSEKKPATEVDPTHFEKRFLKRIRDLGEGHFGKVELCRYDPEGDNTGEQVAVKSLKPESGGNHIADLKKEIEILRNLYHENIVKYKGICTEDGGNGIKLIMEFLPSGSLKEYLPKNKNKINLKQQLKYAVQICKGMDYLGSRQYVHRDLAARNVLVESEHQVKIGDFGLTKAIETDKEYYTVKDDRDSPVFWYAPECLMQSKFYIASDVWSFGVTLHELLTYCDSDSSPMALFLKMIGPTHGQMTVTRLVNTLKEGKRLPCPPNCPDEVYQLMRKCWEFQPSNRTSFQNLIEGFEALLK
JAK2, sequence (O60674 whole entry): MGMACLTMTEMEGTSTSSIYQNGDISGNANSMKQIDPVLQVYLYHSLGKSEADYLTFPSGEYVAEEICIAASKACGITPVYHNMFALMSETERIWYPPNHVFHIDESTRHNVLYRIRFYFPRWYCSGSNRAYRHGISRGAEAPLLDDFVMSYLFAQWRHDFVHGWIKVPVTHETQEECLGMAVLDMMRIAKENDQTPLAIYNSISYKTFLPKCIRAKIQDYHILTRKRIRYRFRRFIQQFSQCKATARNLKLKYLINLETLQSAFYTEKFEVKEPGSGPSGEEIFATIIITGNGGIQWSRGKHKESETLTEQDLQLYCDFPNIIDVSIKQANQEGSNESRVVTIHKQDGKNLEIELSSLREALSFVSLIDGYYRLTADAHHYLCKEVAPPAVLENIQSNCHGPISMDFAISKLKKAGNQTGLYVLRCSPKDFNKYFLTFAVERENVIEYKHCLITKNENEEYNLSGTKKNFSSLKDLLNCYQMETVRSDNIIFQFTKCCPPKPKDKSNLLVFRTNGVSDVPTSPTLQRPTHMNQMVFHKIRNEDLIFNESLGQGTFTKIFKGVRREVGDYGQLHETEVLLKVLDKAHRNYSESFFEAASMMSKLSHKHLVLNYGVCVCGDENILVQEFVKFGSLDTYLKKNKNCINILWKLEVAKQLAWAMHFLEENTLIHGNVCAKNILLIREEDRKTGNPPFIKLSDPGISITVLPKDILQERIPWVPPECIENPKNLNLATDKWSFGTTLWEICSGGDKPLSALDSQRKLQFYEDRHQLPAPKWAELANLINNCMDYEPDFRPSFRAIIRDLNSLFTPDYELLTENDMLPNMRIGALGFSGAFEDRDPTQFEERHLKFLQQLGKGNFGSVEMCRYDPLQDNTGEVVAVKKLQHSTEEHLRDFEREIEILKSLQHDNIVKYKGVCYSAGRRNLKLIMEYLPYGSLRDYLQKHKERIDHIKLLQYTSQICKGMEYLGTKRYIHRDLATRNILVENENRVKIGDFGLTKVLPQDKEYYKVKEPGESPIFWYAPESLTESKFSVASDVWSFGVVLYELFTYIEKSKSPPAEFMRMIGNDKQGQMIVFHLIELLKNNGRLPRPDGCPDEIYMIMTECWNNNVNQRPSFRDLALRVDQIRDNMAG
TYK2, sequence (P29597 whole entry): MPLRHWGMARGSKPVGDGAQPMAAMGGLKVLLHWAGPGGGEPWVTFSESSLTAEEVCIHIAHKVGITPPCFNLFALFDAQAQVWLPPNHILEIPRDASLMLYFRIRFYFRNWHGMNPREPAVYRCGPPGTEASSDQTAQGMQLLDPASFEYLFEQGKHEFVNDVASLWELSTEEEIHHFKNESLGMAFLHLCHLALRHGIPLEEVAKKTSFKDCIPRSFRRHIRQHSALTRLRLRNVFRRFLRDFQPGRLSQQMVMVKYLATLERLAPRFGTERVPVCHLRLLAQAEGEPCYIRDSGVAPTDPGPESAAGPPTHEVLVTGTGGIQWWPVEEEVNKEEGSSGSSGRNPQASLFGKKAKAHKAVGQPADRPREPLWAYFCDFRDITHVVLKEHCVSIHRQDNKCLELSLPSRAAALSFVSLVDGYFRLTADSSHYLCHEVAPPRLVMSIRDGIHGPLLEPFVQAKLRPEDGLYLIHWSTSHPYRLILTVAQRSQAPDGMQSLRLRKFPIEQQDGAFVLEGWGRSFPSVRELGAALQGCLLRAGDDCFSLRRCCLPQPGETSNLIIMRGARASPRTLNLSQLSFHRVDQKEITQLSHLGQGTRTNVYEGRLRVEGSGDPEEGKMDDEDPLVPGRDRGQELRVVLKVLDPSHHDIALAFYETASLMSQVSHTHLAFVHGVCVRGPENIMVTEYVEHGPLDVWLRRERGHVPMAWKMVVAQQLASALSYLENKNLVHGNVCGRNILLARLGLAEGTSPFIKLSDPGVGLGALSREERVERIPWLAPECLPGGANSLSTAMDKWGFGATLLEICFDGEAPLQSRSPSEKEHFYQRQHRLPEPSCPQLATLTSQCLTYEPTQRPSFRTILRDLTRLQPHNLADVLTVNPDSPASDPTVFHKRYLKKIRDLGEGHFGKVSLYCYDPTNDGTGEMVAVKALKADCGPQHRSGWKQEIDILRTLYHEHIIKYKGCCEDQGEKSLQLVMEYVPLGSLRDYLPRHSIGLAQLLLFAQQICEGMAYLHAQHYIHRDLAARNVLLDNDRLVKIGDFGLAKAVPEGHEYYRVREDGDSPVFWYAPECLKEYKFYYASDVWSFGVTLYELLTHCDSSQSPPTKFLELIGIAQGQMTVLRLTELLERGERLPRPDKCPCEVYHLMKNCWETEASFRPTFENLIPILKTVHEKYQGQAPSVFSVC

One may read the pIC50 as the negative decadic logarithm of the IC50, by convention in mol/L. For the molecule `CCC(C)OC(=O)C1CCN(CCNC(=O)c2nn(-c3cc4c(cc3OC)NCCO4)c3cc(-c4cnn5cccnc45)ncc23)CC1` (centres unmarked) [Example 10, sec-butyl 1-(2-(1-(6-methoxy-3,4-dihydro-2H-benzo[b][1,4]oxazin-7-yl)-6-(pyrazolo[1,5-a]pyrimidin-3-yl)-1H-pyrazolo[4,3-c]pyridine-3-carboxamido)ethyl)piperidine-4-carboxylate], the IC50 on JAK1 was no more than 5.01 nM; at JAK2 it was no more than 5.01 nM; at JAK3, no more than 5.01 nM; at TYK2 it was 5.01 to 50.1 nM. Moreover, the pIC50 in assay [1] was no less than 8.30. Besides, the “Fold difference parent vs predicted acid metabolite” value in assay [1] is on record as “kkkk (ratio≥200)”.
Take `COc1cc2c(cc1-n1nc(C(=O)NCCN3CCC(C(=O)OCC(F)(F)F)CC3)c3cnc(-c4cnn5cccnc45)cc31)OCCN2` [Example 13, 2,2,2-trifluoroethyl 1-(2-(1-(6-methoxy-3,4-dihydro-2H-benzo[b][1,4]oxazin-7-yl)-6-(pyrazolo[1,5-a]pyrimidin-3-yl)-1H-pyrazolo[4,3-c]pyridine-3-carboxamido)ethyl)piperidine-4-carboxylate]: the IC50 is no more than 5.01 nM on JAK1, no more than 5.01 nM at JAK2, no more than 5.01 nM on JAK3 and 5.01 to 50.1 nM at TYK2. For the same molecule, the pIC50 in assay [1] was no less than 8.30. In assay [1], the “Fold difference parent vs predicted acid metabolite” value was “kkkk (ratio≥200)”.
For the molecule `CCOC(=O)C1CCN(CCNC(=O)c2nn(-c3cc4c(cc3OC)NCCO4)c3cc(-c4cnn5cccnc45)ncc23)CC1` [Example 9, ethyl 1-(2-(1-(6-methoxy-3,4-dihydro-2H-benzo[b][1,4]oxazin-7-yl)-6-(pyrazolo[1,5-a]pyrimidin-3-yl)-1H-pyrazolo[4,3-c]pyridine-3-carboxamido)ethyl)piperidine-4-carboxylate], the IC50 on JAK1 was no more than 5.01 nM; on JAK2, no more than 5.01 nM; on JAK3 it was no more than 5.01 nM; on TYK2, 5.01 to 50.1 nM. The negative logarithm of the IC50 (pIC50) in assay [1] was no less than 8.30. Further, the “Fold difference parent vs predicted acid metabolite” value in assay [1] is “kkkk (ratio≥200)”.
Regarding `COC(=O)[C@@H]1CCN(CCNC(=O)c2nn(-c3cc4c(cc3OC)NCCO4)c3cc(-c4cnn5cccnc45)ncc23)C1` [Example 29, methyl (R)-1-(2-(1-(6-methoxy-3,4-dihydro-2H-benzo[b][1,4]oxazin-7-yl)-6-(pyrazolo[1,5-a]pyrimidin-3-yl)-1H-pyrazolo[4,3-c]pyridine-3-carboxamido)ethyl)pyrrolidine-3-carboxylate], the IC50 at JAK1 was no more than 5.01 nM; at JAK2 it was no more than 5.01 nM; at JAK3, no more than 5.01 nM; on TYK2 it was 5.01 to 50.1 nM. Moreover, the pIC50 in assay [1] was no less than 8.30. Further, the “Fold difference parent vs predicted acid metabolite” value in assay [1] is “kkk (200>ratio≥100)”.
As for `COc1cc2c(cc1-n1nc(C(=O)NCCN3CCC(C(=O)O[C@@H]4CN(C)C[C@H]4F)CC3)c3cnc(-c4cnn5cccnc45)cc31)OCCN2` (relative stereo) [Example 51, (3R*,4R*)-4-fluoro-1-methylpyrrolidin-3-yl 1-(2-(1-(6-methoxy-3,4-dihydro-2H-benzo[b][1,4]oxazin-7-yl)-6-(pyrazolo[1,5-a]pyrimidin-3-yl)-1H-pyrazolo[4,3-c]pyridine-3-carboxamido)ethyl)piperidine-4-carboxylate], the IC50 is no more than 5.01 nM at JAK1, no more than 5.01 nM at JAK2, no more than 5.01 nM at JAK3 and 5.01 to 50.1 nM at TYK2. Besides, the pIC50 in assay [1] was 7.30 to 8.30. For the same molecule, the “Fold difference parent vs predicted acid metabolite” value in assay [1] is listed as “kkk (200>ratio≥100)”.
Regarding `COc1cc2c(cc1-n1nc(C(=O)NCCN3CCC(C(=O)OCC(C)(C)N(C)C)CC3)c3cnc(-c4cnn5cccnc45)cc31)OCCN2` [Example 20, 2-(dimethylamino)-2-methylpropyl 1-(2-(1-(6-methoxy-3,4-dihydro-2H-benzo[b][1,4]oxazin-7-yl)-6-(pyrazolo[1,5-a]pyrimidin-3-yl)-1H-pyrazolo[4,3-c]pyridine-3-carboxamido)ethyl)piperidine-4-carboxylate], the IC50 was no more than 5.01 nM at JAK1, no more than 5.01 nM on JAK2, no more than 5.01 nM at JAK3 and 5.01 to 50.1 nM on TYK2. Besides, the pIC50 in assay [1] is 7.30 to 8.30. Besides, in assay [1], the “Fold difference parent vs predicted acid metabolite” value is on record as “kkk (200>ratio≥100)”.
As to `COc1cc2c(cc1-n1nc(C(=O)OCC3CN(C)CCO3)c3cnc(-c4cnn5cccnc45)cc31)OCCN2` (centres unmarked) [Example 46, (4-methylmorpholin-2-yl)methyl 1-(6-methoxy-3,4-dihydro-2H-benzo[b][1,4]oxazin-7-yl)-6-(pyrazolo[1,5-a]pyrimidin-3-yl)-1H-pyrazolo[4,3-c]pyridine-3-carboxylate], the IC50 on JAK1 was no more than 5.01 nM; on JAK2, no more than 5.01 nM; on JAK3, no more than 5.01 nM; on TYK2, 5.01 to 50.1 nM. Further, the pIC50 in assay [1] was 7.30 to 8.30. The “Fold difference parent vs predicted acid metabolite” value in assay [1] is on record as “kkk (200>ratio≥100)”.
In the case of `CCOC(=O)[C@H]1C[C@@H](OC(=O)Nc2nn(-c3cc4c(cc3OC)NCCS4)c3cc(-c4cnn5cccnc45)ncc23)C1` [Example 2, ethyl (1s,3s)-3-(((1-(6-methoxy-3,4-dihydro-2H-benzo[b][1,4]thiazin-7-yl)-6-(pyrazolo[1,5-a]pyrimidin-3-yl)-1H-pyrazolo[4,3-c]pyridin-3-yl)carbamoyl)oxy)cyclobutane-1-carboxylate], the IC50 at JAK1 was no more than 5.01 nM; at JAK2 it was no more than 5.01 nM; at JAK3 it was no more than 5.01 nM; on TYK2, 5.01 to 50.1 nM. Besides, the pIC50 in assay [1] is 7.30 to 8.30.
As for `COc1cc2c(cc1-n1nc(C(=O)NCCN3CCC(C(=O)OCC(C)(C)O)CC3)c3cnc(-c4cnn5cccnc45)cc31)OCCN2` [Example 14, 2-hydroxy-2-methylpropyl 1-(2-(1-(6-methoxy-3,4-dihydro-2H-benzo[b][1,4]oxazin-7-yl)-6-(pyrazolo[1,5-a]pyrimidin-3-yl)-1H-pyrazolo[4,3-c]pyridine-3-carboxamido)ethyl)piperidine-4-carboxylate], the IC50 at JAK1 is no more than 5.01 nM; at JAK2 it was no more than 5.01 nM; at JAK3 it was no more than 5.01 nM; at TYK2, 5.01 to 50.1 nM. The pIC50 in assay [1] is no less than 8.30. Also, in assay [1], the “Fold difference parent vs predicted acid metabolite” value is given as “kkkk (ratio≥200)”.
Regarding `COc1cc2c(cc1-n1nc(C(=O)NCCN3CCC(C(=O)OC4CN(C)C4)CC3)c3cnc(-c4cnn5cccnc45)cc31)OCCN2` [Example 21, 1-methylazetidin-3-yl 1-(2-(1-(6-methoxy-3,4-dihydro-2H-benzo[b][1,4]oxazin-7-yl)-6-(pyrazolo[1,5-a]pyrimidin-3-yl)-1H-pyrazolo[4,3-c]pyridine-3-carboxamido)ethyl)piperidine-4-carboxylate], the IC50 was no more than 5.01 nM at JAK1, no more than 5.01 nM on JAK2, no more than 5.01 nM at JAK3 and 5.01 to 50.1 nM at TYK2. For the same molecule, the pIC50 in assay [1] is no less than 8.30. Moreover, the “Fold difference parent vs predicted acid metabolite” value in assay [1] is recorded as “kkkk (ratio≥200)”.
